Patent publication US20140308733A1, “METHOD FOR INDUCING GERMINATION OF SPORE FORMING BACTERIUM” (CALPIS CO., LTD., priority 2011, published 2014)

Key:
Assay in all cases: Germination induction, change of turbidity (630 nm) of spore suspension
Type in all cases: cell-based
Details in all cases: 300 ppm; for turbidity (630 nm): 37° C., 150 rpm
[1] = test system: Bacillus licheniformis (NBRC 14206)
Description: (§1) It is possible to determine whether spores have germinated, after measuring an OD 630 value (turbidity at 630 nm) of the liquid culture, based on decrease in the value (Literature: Microbiology, (1950), 4, 3, 330-338). Briefly, bacterial cells after culturing are washed with distilled water and diluted with distilled water to OD 630=1.0, which is then mixed with an equal volume of a germination induction solution, and the turbidity at 630 nm is measured by a UV spectrophotometer at room temperature.
(§2) TS culture media (Difco, Trypticase Soy Broth) were inoculated respectively with 11 strains listed in Table 1 and cultured at 50° C. with respect to Geobacillus stearothermophilus NBRC13737 and Aeribacillus pallidus TK6004 (FERM BP-08597), and at 37° C. with respect to the other 9 strains, until respective colonies were established. Then with respect to each of 11 strains, a loop full of a single colony was scratched by a platinum loop and suspended in 500 μL of sterilized water. In 1000 g of water was dissolved 8.0 g of a nutrient agar culture medium (Difco, Nutrient Broth), followed by high pressure steam sterilization (121° C., 15 min) to prepare a plate medium. The nutrient agar culture medium was smeared with each 100 μL of the suspension and cultured at 37° C. for 3 days.
(§3) Then, bacterial cells were suspended using a platinum loop in 500 μL of sterilized water, and the bacterial suspension was subjected to a heat shock at 65° C. for 35 min. Each 100 μL of the heat-shocked bacterial suspension and a not-heat-shocked bacterial suspension were smeared on the TS culture media respectively and cultured at 50° C. or 37° C. for 1 day.
(§4) After confirming the spore formation, the bacterial cells were collected by a bacteria spreader, suspended in 10 mL of sterilized distilled water, and then centrifuged (8340×g, 4° C., 15 min). The supernatant was removed and thereafter the bacterial cells were washed twice with 10 mL of sterilized water. After washing, the bacterial cells were suspended in 5 mL of sterilized water, and the suspension was filtrated by sterilized Kimwipes. The filtrate was centrifuged (8340×g, 4° C., 15 min) to remove the supernatant, and the rest was adjusted to the turbidity (at 630 nm) of 1.0 with sterilized water.
(§5) After dissolving with stirring using a stirring rod with a propeller, filtration sterilization (0.45 μm filter) was conducted to prepare each 600 ppm-solution.
(§6) Five hundred (500) μL of each solution and 500 μL of each bacterial spore suspension were mixed. […] Defining the time point of mixing as the reaction initiation (0 min), and continuing shaking (150 rpm) at 37° C., the turbidity (630 nm) was measured at 10, 20, 30, 40, 50, 60, 90, 120, and 180 min after the reaction initiation.
(§7) Since the turbidity at 630 nm decreases by germination of spores, it has been known that the turbidity at 630 nm can be used to determine the germination rate.

[2] = test system: Bacillus licheniformis (NBRC 12200)
Description: as §1, §2, §3, §4, §5, §6, §7

[3] = test system: Bacillus amyloliquefaciens (NBRC 3032)
Description: as §1, §2
as §3, with “day. As the results of the cultures, colony formation was confirmed also with respect to the heat-shocked bacterial suspensions, to confirm that spores were formed for all of 11 strains. Further, since the bacteria were not stained by Gram staining, it was reconfirmed that spores were formed.” for “day.”
as §4, §5, §6, §7

[4] = test system: Aeribacillus pallidus TK6004 (FERM BP-08597)
Description: as §1, §2
as §3, with “day. As the results of the cultures, colony formation was confirmed also with respect to the heat-shocked bacterial suspensions, to confirm that spores were formed for all of 11 strains. Further, since the bacteria were not stained by Gram staining, it was reconfirmed that spores were formed.” for “day.”
as §4, §5, §6, §7

[5] = test system: Bacillus coagulans (NBRC 3887)
Description: as §1, §2
as §3, with “day. As the results of the cultures, colony formation was confirmed also with respect to the heat-shocked bacterial suspensions, to confirm that spores were formed for all of 11 strains. Further, since the bacteria were not stained by Gram staining, it was reconfirmed that spores were formed.” for “day.”
as §4, §5, §6, §7

[6] = test system: Bacillus licheniformis (NBRC 12195)
Description: as §1, §2
as §3, with “day. As the results of the cultures, colony formation was confirmed also with respect to the heat-shocked bacterial suspensions, to confirm that spores were formed for all of 11 strains. Further, since the bacteria were not stained by Gram staining, it was reconfirmed that spores were formed.” for “day.”
as §4, §5, §6, §7

[7] = test system: Geobacillus stearothermophilus (NBRC 13737)
Description: as §1, §2
as §3, with “day. As the results of the cultures, colony formation was confirmed also with respect to the heat-shocked bacterial suspensions, to confirm that spores were formed for all of 11 strains. Further, since the bacteria were not stained by Gram staining, it was reconfirmed that spores were formed.” for “day.”
as §4, §5, §6, §7

[8] = 0 min after reaction initiation
[9] = 10 min after reaction initiation
[10] = 20 min after reaction initiation
[11] = 30 min after reaction initiation
[12] = 40 min after reaction initiation
[13] = 50 min after reaction initiation
[14] = 60 min after reaction initiation
[15] = 90 min after reaction initiation
[16] = 120 min after reaction initiation
[17] = 180 min after reaction initiation

With `COc1cc(C(=O)O)ccc1O` [Vanillic acid, vanillic acid] the “turbidity (630 nm)” value [1, 8] was 0.583, the “turbidity (630 nm)” value [1, 9] was 0.573 and the “turbidity (630 nm)” value [1, 10] was 0.563. For the same compound, the “turbidity (630 nm)” value [1, 11] was 0.553, the “turbidity (630 nm)” value [1, 12] was 0.537 and the “turbidity (630 nm)” value [1, 13] was 0.526. For the same compound, the “turbidity (630 nm)” value [1, 14] was 0.503, the “turbidity (630 nm)” value [1, 15] was 0.470 and the “turbidity (630 nm)” value [1, 16] was 0.453. For the same compound, the “turbidity (630 nm)” value [1, 17] was 0.414, the “germination confirmed by turbidity decrease” value ([1]; up to 180 min) was “the turbidity decreased” and the “turbidity (630 nm)” value [2, 8] was 0.602. The “turbidity (630 nm)” value [2, 9] was 0.574, the “turbidity (630 nm)” value [2, 10] was 0.567 and the “turbidity (630 nm)” value [2, 11] was 0.542. For the same compound, the “turbidity (630 nm)” value [2, 12] was 0.523, the “turbidity (630 nm)” value [2, 13] was 0.488 and the “turbidity (630 nm)” value [2, 14] was 0.464. The “turbidity (630 nm)” value [2, 15] was 0.414, the “turbidity (630 nm)” value [2, 16] was 0.362 and the “turbidity (630 nm)” value [2, 17] was 0.267. The “germination confirmed by turbidity decrease” value ([2]; up to 180 min) was “the turbidity decreased”, the “turbidity (630 nm)” value [3, 8] was 0.519 and the “turbidity (630 nm)” value [3, 9] was 0.496. The “turbidity (630 nm)” value [3, 10] was 0.485, the “turbidity (630 nm)” value [3, 11] was 0.435 and the “turbidity (630 nm)” value [3, 12] was 0.385. For the same compound, the “turbidity (630 nm)” value [3, 13] was 0.359, the “turbidity (630 nm)” value [3, 14] was 0.316 and the “turbidity (630 nm)” value [3, 15] was 0.278. The “turbidity (630 nm)” value [3, 16] was 0.237, the “turbidity (630 nm)” value [3, 17] was 0.210 and the “germination confirmed by turbidity decrease” value ([3]; up to 180 min) was “the turbidity decreased”. The “turbidity (630 nm)” value [4, 8] was 0.482, the “turbidity (630 nm)” value [4, 9] was 0.444 and the “turbidity (630 nm)” value [4, 10] was 0.348. The “turbidity (630 nm)” value [4, 11] was 0.243, the “turbidity (630 nm)” value [4, 12] was 0.158 and the “turbidity (630 nm)” value [4, 13] was 0.103. For the same compound, the “turbidity (630 nm)” value [4, 14] was 0.067, the “turbidity (630 nm)” value [4, 15] was 0.026 and the “turbidity (630 nm)” value [4, 16] was 0.010. For the same compound, the “turbidity (630 nm)” value [4, 17] was 0.000, the “germination confirmed by turbidity decrease” value ([4]; up to 180 min) was “the turbidity decreased” and the “turbidity (630 nm)” value [5, 8] was 0.559. The “turbidity (630 nm)” value [5, 9] was 0.550, the “turbidity (630 nm)” value [5, 10] was 0.473 and the “turbidity (630 nm)” value [5, 11] was 0.411. The “turbidity (630 nm)” value [5, 12] was 0.364, the “turbidity (630 nm)” value [5, 13] was 0.321 and the “turbidity (630 nm)” value [5, 14] was 0.295. The “turbidity (630 nm)” value [5, 15] was 0.230, the “turbidity (630 nm)” value [5, 16] was 0.182 and the “turbidity (630 nm)” value [5, 17] was 0.130. The “germination confirmed by turbidity decrease” value ([5]; up to 180 min) was “the turbidity decreased”, the “turbidity (630 nm)” value [6, 8] was 0.536 and the “turbidity (630 nm)” value [6, 9] was 0.513. The “turbidity (630 nm)” value [6, 10] was 0.483, the “turbidity (630 nm)” value [6, 11] was 0.438 and the “turbidity (630 nm)” value [6, 12] was 0.393. The “turbidity (630 nm)” value [6, 13] was 0.324, the “turbidity (630 nm)” value [6, 14] was 0.278 and the “turbidity (630 nm)” value [6, 15] was 0.196. The “turbidity (630 nm)” value [6, 16] was 0.151, the “turbidity (630 nm)” value [6, 17] was 0.092 and the “germination confirmed by turbidity decrease” value ([6]; up to 180 min) was “the turbidity decreased”. For the same compound, the “turbidity (630 nm)” value [7, 8] was 0.584, the “turbidity (630 nm)” value [7, 9] was 0.590 and the “turbidity (630 nm)” value [7, 10] was 0.531. For the same compound, the “turbidity (630 nm)” value [7, 11] was 0.510, the “turbidity (630 nm)” value [7, 12] was 0.467 and the “turbidity (630 nm)” value [7, 13] was 0.445. The “turbidity (630 nm)” value [7, 14] was 0.402, the “turbidity (630 nm)” value [7, 15] was 0.291 and the “turbidity (630 nm)” value [7, 16] was 0.209. The “turbidity (630 nm)” value [7, 17] was 0.099 and the “germination confirmed by turbidity decrease” value ([7]; up to 180 min) was “the turbidity decreased”.
